One may read the inhibition as the relative decrease from the control value, in per cent. A low value points to a weak effect.

The record followed here is PMC5355060, “Preclinical pharmacodynamic evaluation of drug candidate SKLB-178 in the treatment of non-small cell lung cancer” (Oncotarget, 2017).

What all share (type): biochemical
One test has as its target T1, PDGFRα (Homo sapiens, UniProt P16234).
T1 construct: gene PDGFRA
In words: […] radiolabeled kinase assay, single dose […].

In a further test the target is EGFR (Homo sapiens, UniProt P00533). Description: […] radiolabeled kinase assay (Millipore KinaseProfiler).
The target in another test is Src (Homo sapiens, UniProt P12931). The description is as above.
For the next test, the target named is ErbB4 (Homo sapiens, UniProt Q15303). Description: […] radiolabeled kinase assay, single dose […].
In another test the target is MET (Homo sapiens, UniProt P08581). In words: […] radiolabeled kinase assay, single dose […].
For the next test, the target named is KDR (VEGFR2) (Homo sapiens, UniProt P35968). Description: […] radiolabeled kinase assay (Millipore KinaseProfiler).
Another test has as its target EGFR L858R/T790M (Homo sapiens, UniProt P00533, T790M/L858R). Described as above.
Another test concerns the target EGFR L858R (Homo sapiens, UniProt P00533, L858R). The description is as above.

Chain of EGFR L858R (P00533 668-1210 L858R limits assumed): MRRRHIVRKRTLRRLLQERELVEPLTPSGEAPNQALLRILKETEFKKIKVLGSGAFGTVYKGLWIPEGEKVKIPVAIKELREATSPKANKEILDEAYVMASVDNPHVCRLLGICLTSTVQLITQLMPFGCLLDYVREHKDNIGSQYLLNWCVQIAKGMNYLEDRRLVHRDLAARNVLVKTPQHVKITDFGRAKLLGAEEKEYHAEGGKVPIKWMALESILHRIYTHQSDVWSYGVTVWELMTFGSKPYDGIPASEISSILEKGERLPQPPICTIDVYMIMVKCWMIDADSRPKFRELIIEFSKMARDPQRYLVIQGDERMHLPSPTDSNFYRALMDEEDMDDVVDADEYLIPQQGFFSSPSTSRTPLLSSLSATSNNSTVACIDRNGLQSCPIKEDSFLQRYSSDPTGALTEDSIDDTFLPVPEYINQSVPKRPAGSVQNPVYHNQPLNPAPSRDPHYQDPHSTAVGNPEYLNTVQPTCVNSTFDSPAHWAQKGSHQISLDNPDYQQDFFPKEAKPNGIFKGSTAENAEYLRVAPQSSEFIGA
Chain of ErbB4 (Q15303 26-1308): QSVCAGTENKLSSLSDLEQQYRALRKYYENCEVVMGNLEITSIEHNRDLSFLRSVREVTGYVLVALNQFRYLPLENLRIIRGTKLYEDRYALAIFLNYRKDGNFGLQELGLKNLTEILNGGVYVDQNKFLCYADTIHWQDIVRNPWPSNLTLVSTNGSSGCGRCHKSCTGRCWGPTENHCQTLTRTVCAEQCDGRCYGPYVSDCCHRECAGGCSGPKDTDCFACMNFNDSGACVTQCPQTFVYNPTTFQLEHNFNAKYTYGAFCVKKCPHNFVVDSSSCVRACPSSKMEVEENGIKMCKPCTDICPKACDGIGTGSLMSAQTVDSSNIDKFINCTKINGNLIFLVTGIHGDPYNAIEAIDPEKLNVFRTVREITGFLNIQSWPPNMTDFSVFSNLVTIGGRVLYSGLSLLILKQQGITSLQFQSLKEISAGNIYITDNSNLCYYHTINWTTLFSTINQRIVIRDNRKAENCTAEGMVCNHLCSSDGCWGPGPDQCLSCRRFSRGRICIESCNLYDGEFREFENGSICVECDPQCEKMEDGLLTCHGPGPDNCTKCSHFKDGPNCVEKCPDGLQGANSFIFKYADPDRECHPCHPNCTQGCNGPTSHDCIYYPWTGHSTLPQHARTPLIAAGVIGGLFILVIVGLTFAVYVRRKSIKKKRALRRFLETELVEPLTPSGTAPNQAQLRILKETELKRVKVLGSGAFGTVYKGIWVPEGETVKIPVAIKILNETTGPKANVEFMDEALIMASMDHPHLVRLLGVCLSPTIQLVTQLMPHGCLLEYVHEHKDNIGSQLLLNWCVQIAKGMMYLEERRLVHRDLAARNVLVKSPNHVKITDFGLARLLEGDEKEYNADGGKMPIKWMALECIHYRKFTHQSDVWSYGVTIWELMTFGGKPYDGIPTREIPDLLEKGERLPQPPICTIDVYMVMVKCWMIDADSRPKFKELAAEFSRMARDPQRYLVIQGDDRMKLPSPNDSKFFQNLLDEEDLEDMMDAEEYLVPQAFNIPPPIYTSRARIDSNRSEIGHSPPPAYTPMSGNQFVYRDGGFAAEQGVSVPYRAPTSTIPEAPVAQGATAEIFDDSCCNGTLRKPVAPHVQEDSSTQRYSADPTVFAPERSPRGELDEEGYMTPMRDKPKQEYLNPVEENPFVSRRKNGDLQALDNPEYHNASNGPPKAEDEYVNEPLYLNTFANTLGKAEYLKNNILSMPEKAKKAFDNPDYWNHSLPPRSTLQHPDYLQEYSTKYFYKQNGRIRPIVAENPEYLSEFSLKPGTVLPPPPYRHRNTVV
Chain of EGFR L858R/T790M (P00533 669-1210 T790M/L858R limits assumed): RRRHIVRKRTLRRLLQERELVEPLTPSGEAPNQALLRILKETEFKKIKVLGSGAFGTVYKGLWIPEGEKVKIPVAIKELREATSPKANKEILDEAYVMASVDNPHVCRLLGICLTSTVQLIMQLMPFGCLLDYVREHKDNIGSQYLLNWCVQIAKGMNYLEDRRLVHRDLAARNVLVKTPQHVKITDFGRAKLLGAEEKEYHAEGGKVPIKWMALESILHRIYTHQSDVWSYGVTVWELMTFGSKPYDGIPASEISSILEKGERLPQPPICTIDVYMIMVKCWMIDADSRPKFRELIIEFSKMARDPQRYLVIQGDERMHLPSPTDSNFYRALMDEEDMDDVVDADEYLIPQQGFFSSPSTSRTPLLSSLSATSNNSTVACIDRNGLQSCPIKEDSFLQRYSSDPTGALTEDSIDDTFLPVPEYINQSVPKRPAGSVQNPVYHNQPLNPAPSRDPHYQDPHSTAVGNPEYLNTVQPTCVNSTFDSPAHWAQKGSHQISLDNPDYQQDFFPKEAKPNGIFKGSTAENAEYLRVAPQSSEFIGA
Chain of EGFR (P00533 25-1210): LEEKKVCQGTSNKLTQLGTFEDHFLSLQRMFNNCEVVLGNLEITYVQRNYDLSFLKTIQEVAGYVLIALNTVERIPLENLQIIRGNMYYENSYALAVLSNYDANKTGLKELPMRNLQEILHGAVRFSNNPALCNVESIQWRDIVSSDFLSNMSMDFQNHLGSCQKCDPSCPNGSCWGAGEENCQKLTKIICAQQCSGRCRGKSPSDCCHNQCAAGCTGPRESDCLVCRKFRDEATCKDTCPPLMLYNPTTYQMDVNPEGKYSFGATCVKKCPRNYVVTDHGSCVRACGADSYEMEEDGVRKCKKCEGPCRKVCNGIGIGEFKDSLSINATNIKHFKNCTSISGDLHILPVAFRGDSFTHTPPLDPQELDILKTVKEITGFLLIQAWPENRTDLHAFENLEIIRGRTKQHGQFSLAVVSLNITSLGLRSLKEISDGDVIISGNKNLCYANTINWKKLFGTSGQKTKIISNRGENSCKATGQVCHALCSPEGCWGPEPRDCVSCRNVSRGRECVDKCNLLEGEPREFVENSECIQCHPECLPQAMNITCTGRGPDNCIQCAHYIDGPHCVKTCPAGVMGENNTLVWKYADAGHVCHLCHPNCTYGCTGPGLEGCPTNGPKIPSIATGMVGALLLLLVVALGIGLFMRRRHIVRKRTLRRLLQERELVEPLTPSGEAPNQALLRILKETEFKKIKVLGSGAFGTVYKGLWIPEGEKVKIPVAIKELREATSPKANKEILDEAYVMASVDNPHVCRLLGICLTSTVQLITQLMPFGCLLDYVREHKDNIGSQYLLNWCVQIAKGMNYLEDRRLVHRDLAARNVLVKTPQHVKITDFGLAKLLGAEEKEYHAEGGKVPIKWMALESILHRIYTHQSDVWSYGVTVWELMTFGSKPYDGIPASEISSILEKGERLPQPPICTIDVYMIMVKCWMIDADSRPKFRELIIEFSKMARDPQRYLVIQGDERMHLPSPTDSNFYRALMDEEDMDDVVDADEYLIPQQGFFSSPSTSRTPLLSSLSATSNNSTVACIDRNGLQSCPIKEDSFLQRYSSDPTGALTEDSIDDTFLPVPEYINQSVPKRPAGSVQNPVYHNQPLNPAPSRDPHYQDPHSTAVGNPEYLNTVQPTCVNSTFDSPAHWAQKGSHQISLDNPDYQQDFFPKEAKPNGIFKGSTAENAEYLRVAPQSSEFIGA
Chain of MET (P08581 25-307): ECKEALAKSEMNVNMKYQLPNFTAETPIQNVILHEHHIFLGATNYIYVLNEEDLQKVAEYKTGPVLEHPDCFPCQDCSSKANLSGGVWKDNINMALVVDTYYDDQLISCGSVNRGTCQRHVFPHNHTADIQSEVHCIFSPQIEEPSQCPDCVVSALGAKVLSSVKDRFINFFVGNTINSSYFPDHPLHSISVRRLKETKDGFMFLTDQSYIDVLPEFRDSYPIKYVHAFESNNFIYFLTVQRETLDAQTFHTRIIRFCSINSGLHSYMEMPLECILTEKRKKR
Chain of MET (P08581 308-1390): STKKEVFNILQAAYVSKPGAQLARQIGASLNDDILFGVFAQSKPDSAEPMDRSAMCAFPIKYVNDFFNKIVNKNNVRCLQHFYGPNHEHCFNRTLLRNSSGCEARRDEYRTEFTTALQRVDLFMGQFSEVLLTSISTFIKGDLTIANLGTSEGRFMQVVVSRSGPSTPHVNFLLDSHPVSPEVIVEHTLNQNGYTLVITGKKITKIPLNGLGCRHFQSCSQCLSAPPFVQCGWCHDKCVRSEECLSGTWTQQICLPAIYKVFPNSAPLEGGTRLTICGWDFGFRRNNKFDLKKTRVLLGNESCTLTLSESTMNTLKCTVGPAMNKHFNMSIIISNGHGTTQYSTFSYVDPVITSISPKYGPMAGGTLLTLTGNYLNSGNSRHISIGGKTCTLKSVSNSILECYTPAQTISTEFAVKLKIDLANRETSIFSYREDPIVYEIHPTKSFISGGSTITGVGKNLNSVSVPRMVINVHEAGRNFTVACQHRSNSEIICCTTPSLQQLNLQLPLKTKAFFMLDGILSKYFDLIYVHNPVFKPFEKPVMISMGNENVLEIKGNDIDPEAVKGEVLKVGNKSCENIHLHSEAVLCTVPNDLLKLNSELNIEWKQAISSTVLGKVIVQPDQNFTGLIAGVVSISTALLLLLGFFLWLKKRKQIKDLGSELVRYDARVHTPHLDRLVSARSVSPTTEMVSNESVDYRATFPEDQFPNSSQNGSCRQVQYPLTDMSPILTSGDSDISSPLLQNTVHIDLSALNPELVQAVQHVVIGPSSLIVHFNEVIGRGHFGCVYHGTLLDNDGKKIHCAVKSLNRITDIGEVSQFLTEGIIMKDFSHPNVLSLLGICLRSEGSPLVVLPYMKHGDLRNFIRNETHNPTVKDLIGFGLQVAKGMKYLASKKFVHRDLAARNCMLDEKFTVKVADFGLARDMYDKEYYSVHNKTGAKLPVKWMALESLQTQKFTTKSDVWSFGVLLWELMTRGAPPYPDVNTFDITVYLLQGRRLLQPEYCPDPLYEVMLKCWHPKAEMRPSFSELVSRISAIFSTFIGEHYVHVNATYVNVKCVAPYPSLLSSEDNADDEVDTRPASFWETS

In the case of `CN1CCN(c2ccc(Nc3ncc4nc(Nc5ccc(Br)cc5)n(C5CCCC5)c4n3)cc2)CC1` [SKLB-178], the inhibition at 1 µM is 58% at PDGFRα and 100% against ErbB4. Moreover, the “33P radiolabeled kinase assay (Millipore KinaseProfiler)” value on EGFR, at Src, on KDR (VEGFR2), on EGFR L858R/T790M and on EGFR L858R was “completely inhibited at 10 μM or 1 μM” throughout. Further, on MET, 10 µM produced 88% inhibition.
